Measured values published in patent US20220073554A1, “LINCOSAMIDE ANTIBIOTICS AND USES THEREOF” (President and Fellows of Harvard College, priority 2017, published 2022).
In brackets after ≈: the same amount, converted by molar mass. Like-named read-outs stand apart in the source and are kept apart here.

What was measured:
Type in all cases: cell-based
E. coli MP-9 ΔTolC = assay: MIC against E. coli MP-9 ΔTolC; settings: Escherichia coli
E. coli ATCC 25922 = assay: MIC against E. coli ATCC 25922; settings: Escherichia coli, ATCC25922
[1] = system: S. aureus MP-549 msr(a) USA 300; assay: MIC against S. aureus MP-549 msr(a) USA 300; settings: Staphylococcus aureus, USA300, S. aureus MP-549 msr(a) USA 300
[2] = system: S. aureus MP-513 clinical cErm; assay: MIC against S. aureus MP-513 clinical cErm; settings: Staphylococcus aureus
K. pneumoniae ATCC 10031 = assay: MIC against K. pneumoniae ATCC 10031; settings: Klebsiella pneumoniae, ATCC10031
P. aeruginosa ATCC 27853 = assay: MIC against P. aeruginosa ATCC 27853; settings: Pseudomonas aeruginosa, ATCC27853
S. aureus BAA 977 iErmA = assay: MIC against S. aureus BAA 977 iErmA; settings: Staphylococcus aureus, BAA977
S. aureus ATCC 29213 = assay: MIC against S. aureus ATCC 29213; settings: Staphylococcus aureus
S. pneumoniae ATCC 49619 = assay: MIC against S. pneumoniae ATCC 49619; settings: Streptococcus pneumoniae, ATCC49619; S. pneumoniae ATCC 49619; read-out: MIC
[3] = system: E. coli MP-74 LptD mutant; assay: MIC against E. coli MP-74 LptD mutant; settings: Escherichia coli
E. faecalis ATCC 29212 = assay: MIC against E. faecalis ATCC 29212; settings: Enterococcus faecalis, ATCC29212
S. pyogenes ATCC 19615 = assay: MIC against S. pyogenes ATCC 19615; settings: Streptococcus pyogenes, ATCC19615; S. pyogenes ATCC 19615; read-out: MIC
[4] = ATCC29213, S. aureus ATCC 29213, read-out: MIC

SMILES | MIC (E. coli MP-9 ΔTolC) | MIC (E. coli ATCC 25922) | MIC [1] | MIC [2] | MIC (K. pneumoniae ATCC 10031) | MIC (P. aeruginosa ATCC 27853) | MIC (S. aureus BAA 977 iErmA) | MIC (S. aureus ATCC 29213; [4]) | MIC (S. aureus ATCC 29213; ATCC29213) | MIC (S. pneumoniae ATCC 49619) | MIC [3] | MIC (E. faecalis ATCC 29212) | MIC (S. pyogenes ATCC 19615)
CSC1O[C@H]([C@H](NC(=O)[C@H]2NC[C@@H]3CNCCO[C@H]32)[C@H](C)Cl)C(O)[C@@H](O)[C@H]1O (some centres unmarked) [FSA-503001] | > 64 µg/mL | > 64 µg/mL | > 64 µg/mL | > 64 µg/mL | > 64 µg/mL | > 64 µg/mL | > 64 µg/mL | – | – | – | – | – | –
CSC1O[C@H]([C@H](NC(=O)[C@H]2NC[C@@H]3CN(C)CCO[C@H]32)[C@H](C)Cl)C(O)[C@@H](O)[C@H]1O (some centres unmarked) [FSA-503002] | > 64 µg/mL | > 64 µg/mL | > 64 µg/mL | > 64 µg/mL | > 64 µg/mL | > 64 µg/mL | > 64 µg/mL | – | – | – | – | – | –
CCCN1CCO[C@@H]2[C@H](CN[C@@H]2C(=O)N[C@H]([C@H](C)Cl)[C@H]2OC(SC)[C@H](O)[C@H](O)C2O)C1 (some centres unmarked) [FSA-503003] | > 64 µg/mL | > 64 µg/mL | 2 µg/mL (≈ 4.15 µM) | > 64 µg/mL | > 64 µg/mL | > 64 µg/mL | 4 µg/mL (≈ 8.3 µM) | 4 µg/mL (≈ 8.3 µM) | – | – | – | – | –
CCNC(=O)N1CCO[C@@H]2[C@H](CN[C@@H]2C(=O)N[C@H]([C@H](C)Cl)[C@H]2OC(SC)[C@H](O)[C@H](O)C2O)C1 (some centres unmarked) [FSA-503004] | > 64 µg/mL | > 64 µg/mL | > 64 µg/mL | > 64 µg/mL | > 64 µg/mL | > 64 µg/mL | > 64 µg/mL | – | > 64 µg/mL | – | – | – | –
C=CCOC(=O)N1CCO[C@@H]2[C@H](CN[C@@H]2C(=O)N[C@H]([C@H](C)Cl)[C@H]2OC(SC)[C@H](O)[C@H](O)C2O)C1 (some centres unmarked) [FSA-503073] | > 64 µg/mL | > 64 µg/mL | – | > 64 µg/mL | > 64 µg/mL | > 64 µg/mL | – | – | – | – | – | – | –
CSC1O[C@H]([C@H](NC(=O)[C@H]2NC[C@@H]3CN(Cc4ccnc(N)c4)CCO[C@H]32)[C@H](C)Cl)C(O)[C@@H](O)[C@H]1O (some centres unmarked) [FSA-504049] | > 64 µg/mL | > 64 µg/mL | 8 µg/mL (≈ 14.6 µM) | > 64 µg/mL | > 64 µg/mL | > 64 µg/mL | – | 14 µg/mL (≈ 25.6 µM) | – | – | – | – | –
CSC1O[C@H]([C@H](NC(=O)[C@H]2NC[C@@H]3CN(Cc4ccc(N)nc4)CCO[C@H]32)[C@H](C)Cl)C(O)[C@@H](O)[C@H]1O (some centres unmarked) [FSA-504050] | > 64 µg/mL | > 64 µg/mL | – | > 64 µg/mL | > 64 µg/mL | > 64 µg/mL | – | – | – | – | – | – | –
CSC1O[C@H]([C@H](NC(=O)[C@H]2NC[C@@H]3CN(C(=N)N)CCO[C@H]32)[C@H](C)Cl)C(O)[C@@H](O)[C@H]1O (some centres unmarked) [FSA-504057] | > 64 µg/mL | > 64 µg/mL | – | > 64 µg/mL | > 64 µg/mL | > 64 µg/mL | – | – | > 64 µg/mL | – | – | – | –
CSC1O[C@H]([C@H](NC(=O)[C@H]2NC[C@@H]3CN(CC(=O)O)CCO[C@H]32)[C@H](C)Cl)C(O)[C@@H](O)[C@H]1O (some centres unmarked) [FSA-504063] | > 64 µg/mL | > 64 µg/mL | – | > 64 µg/mL | > 64 µg/mL | > 64 µg/mL | – | – | > 64 µg/mL | – | – | – | –
CSC1O[C@H]([C@H](NC(=O)[C@H]2NC[C@@H]3CC(c4ccc(-c5ccccc5)cc4)=CCO[C@H]32)[C@H](C)Cl)C(O)[C@@H](O)[C@H]1O (some centres unmarked) [FSA-510001] | > 64 µg/mL | > 64 µg/mL | – | – | > 64 µg/mL | – | 2 µg/mL (≈ 3.39 µM) | 2 µg/mL (≈ 3.39 µM) | – | 4 µg/mL (≈ 6.79 µM) | 8 µg/mL (≈ 13.6 µM) | 8 µg/mL (≈ 13.6 µM) | 2 µg/mL (≈ 3.39 µM)
